According to patent publication US8658672B2, “HIF-1α activating agent” (University of Seoul Foundation of Industrial and Academic …, priority 2006, dated 2014):

Experiments:
HIF-1α and CBP = biological target: T1, HIF-1α and CBP (UniProt P45481+Q16665); assay: In vitro interaction between HIF-1α and CBP; assay type: binding, human; details: [35S]-labeled HIF-1α, bead-bound GST-CBP N-domain, with or without ZnCl2 20 μM
T1 construct: GST-CBP N-domain (amino acids 1-450); made in house
Experimental: Glutathione-uniflow resin bound protein was washed four times with 1 ml of 0.1% Nonidet P-40 containing binding buffer, eluted by heating in SDS sample buffer, and fractionated by SDS-PAGE (Dann et al., Proc Natl Acad Sci USA 99:15351-15356, 2002).

human PHD2 = biological target: T2, human PHD2 (Homo sapiens, UniProt Q9GZT9); assay: PHD2 activity, in vitro VHL pull down assay; assay type: biochemical; details: capture of [35S]-labeled VHL by GST-ODD of human HIF-1α
T2 construct: histidine tag; made in house; host or cells: E. coli
T2 sequence (Q9GZT9 whole entry): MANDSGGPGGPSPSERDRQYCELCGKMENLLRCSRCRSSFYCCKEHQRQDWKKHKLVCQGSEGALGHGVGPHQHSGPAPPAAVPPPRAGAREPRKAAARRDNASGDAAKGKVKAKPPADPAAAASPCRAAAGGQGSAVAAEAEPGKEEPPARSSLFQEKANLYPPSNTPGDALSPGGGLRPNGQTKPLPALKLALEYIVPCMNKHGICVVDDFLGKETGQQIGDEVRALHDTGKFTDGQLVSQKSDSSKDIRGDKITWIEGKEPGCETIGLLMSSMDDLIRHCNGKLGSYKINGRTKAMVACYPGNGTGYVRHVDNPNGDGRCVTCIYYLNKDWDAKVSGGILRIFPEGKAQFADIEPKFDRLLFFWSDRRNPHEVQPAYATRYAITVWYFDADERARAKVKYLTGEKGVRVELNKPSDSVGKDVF
Experimental: The present inventors investigated the effect of CQ on the activity of PHD2. Human PHD2 gene (AJ310543) was cloned into pET21b His2(+) vector and then the human PHD2 was expressed with a histidine tag in E. coli and purified by Ni-affinity chromatography (Choi, K. O. et al., Mol. Pharrmacol. 68, 1803-1809, 2005). The in vitro VHL pull down assay was performed as described by Haakkola et al (Haakkola, P. et al., Science 292,468-472, 2001). Particularly, [^35S]-methionine-labeled VHL protein was synthesized by in vitro transcription and translation using the pcDNA3.1/myc-hygro-VHL plasmid (Promega, Cat# L1170, USA), according to the instruction manual (Promega, Cat# L1170). GST-ODD (amino acids 401-603 of human HIF-1α) was expressed in E. coli and purified with glutathione-uniflow resin according to the instruction manual (BD Bioscience Clontech, Cat# 8912-1, USA). […] After agitation at 4° C. for 2 hours, the resin was washed three times with 1 ml of NETN buffer, and proteins were eluted in 3×SDS sample buffer, fractionated by 12% SDS-PAGE, and detected by autoradiography. The amount of each sample loaded was monitored by staining the GST-ODD with Coomassie blue.

HIF-1α [1] = assay: Effects of CQ and TPEN on HIF-1α stabilization in HepG2 cells (Western blotting); assay type: cell-based, human; details: 6 hours, TPEN 5 μM
Experimental: Human HepG2 hepatoma cells (ATCC HB-8065) were cultured under normoxic condition and under hypoxic condition, respectively. HepG2 cells were cultured in MEM (Invitrogen, USA) containing non-essential amino acids and supplemented with 10% FBS (fetal bovine serum: Biowhittaker, USA). The cells were made hypoxic by incubation in anaerobic incubator (Model 1029, Form a Scientific. Inc) at 37° C. with 5% CO2, 10% H2 and 85% N2. The cells were treated with drugs one hour before incubation under hypoxic condition. To separate RNAs, the cells were incubated for 16 hours under hypoxic condition and to separate proteins the cells were cultured for 6 hours under hypoxic condition. […] HIF-1α expression was investigated by Western blotting. Samples from each group proceeded to 8% SDS-PAGE for electrophoresis and were then transferred onto nitrocellulose membrane (Schleicher & Schuell Bioscience, USA). Anti-human HIF-1α antibody (BD Pharmingen, USA) (1:800) was used as a primary antibody and mouse-Ig conjugated horseradish peroxidase (1:3,000) was used as a secondary antibody. Anti-β tubulin antibody (BD, Pharmingen, USA) was used as a control.

[2] = test system: HRE (hypoxia-response element); assay: HRE dependent gene expression in HepG2 hepatoma cells (luciferase reporter gene assay); assay type: cell-based, human; details: p(HRE)4-luc, TPEN 5, 10 μM, CQ 10, 50 μM, 16 hours
Experimental: Human HepG2 hepatoma cells were grown to the density of 5×10^4 and then transfected with 100 ng of HRE-driven reporter plasmid, p(HRE)4-luc together with plasmid pCHO110 which encodes β-galactosidase. The transfected human HepG2 hepatoma cells were cultured under normoxic condition and hypoxic condition and then treated with TPEN (5, 10 μM) and CQ (10, 50 μM) for 16 hours each. 48 hours after the transfection, luciferase activities were analyzed using the reporter gene assay system (Promega, USA) and normalized by β-galactosidase activities.

HIF-1α [3] = assay: Effects of CQ and TPEN on HIF-1α stabilization in SH-SY5Y cells (Western blotting); assay type: cell-based, human
Experimental: Human SH-SY5Y neuroblastoma cells (ATCC CRL-2266) were cultured under normoxic condition and hypoxic condition, respectively. SH-SY5Y cells were cultured in MEM (Invitrogen, USA) containing non-essential amino acids and supplemented with 10% FBS (fetal bovine serum: Biowhittaker, USA). The cells were made hypoxic by incubation in anaerobic incubator (Model 1029, Form a Scientific Inc) at 37° C. with 5% CO2, 10% H2 and 85% N2. The cells were treated with drugs one hour before hypoxic treatment. To separate RNAs, the cells were incubated for 16 hours under hypoxic condition and to separate proteins the cells were cultured for 6 hours under hypoxic condition. […] HIF-1α expression was investigated by Western blotting. Samples from each group proceeded to 8% SDS-PAGE for electrophoresis and were then transferred onto nitrocellulose membrane (Sigma, USA). Anti-human HIF-1α antibody (BD, Pharmingen, USA) (1:800) was used as a primary antibody and mouse-Ig conjugated horseradish:peroxidase (1:3,000) was used as a secondary antibody. Anti-β tubulin antibody (BD, Pharmingen, USA) was used as a control.

HIF-1α [4] = assay: In vivo HIF-1α ubiquitination in HepG2 cells (Western blotting); assay type: cell-based, human; details: normoxic condition, 6 hours, CQ 100 μM, TPEN 5 μM

T1 sequence (P45481 1-450 limits assumed, one chain of several): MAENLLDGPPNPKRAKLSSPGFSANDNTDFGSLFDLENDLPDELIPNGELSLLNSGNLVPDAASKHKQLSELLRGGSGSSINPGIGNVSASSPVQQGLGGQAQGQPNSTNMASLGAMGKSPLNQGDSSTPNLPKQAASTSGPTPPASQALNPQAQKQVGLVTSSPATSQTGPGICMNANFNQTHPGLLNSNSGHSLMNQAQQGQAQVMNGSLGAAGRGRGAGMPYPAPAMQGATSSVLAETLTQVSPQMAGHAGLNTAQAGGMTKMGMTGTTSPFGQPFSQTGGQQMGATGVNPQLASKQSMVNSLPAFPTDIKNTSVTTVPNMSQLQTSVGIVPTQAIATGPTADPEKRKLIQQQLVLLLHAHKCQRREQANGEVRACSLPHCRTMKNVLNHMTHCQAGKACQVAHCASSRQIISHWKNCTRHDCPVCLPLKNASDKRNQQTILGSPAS

## c1ccc(CN(CCN(Cc2ccccn2)Cc2ccccn2)Cc2ccccn2)nc1 [TPEN, tetrakis-(2-pyridylmethyl)ethanediamine]
HIF-1α and CBP
  direct effect on the interaction between CBP and HIF-1α: neither CQ nor TPEN directly affected the interaction between CBP and HIF-1α
Human PHD2
  activity of PHD2: increased the activity of PHD2
HIF-1α [1]; hypoxic condition, CQ 10, 100 μM, compared with a control
  HIF-1α accumulation: induced HIF-1α accumulation
HIF-1α [1]; normoxic condition, CQ 10, 100, 500 μM
  level of HIF-1α protein: increased the level of HIF-1α protein
[2]
  HIF-1α dependent hypoxia-response element (HRE) activity: but not TPEN induced HIF-1α dependent hypoxia-response element (HRE) activity
HIF-1α [3]; normoxic, 6 hours, TPEN 5 μM, CQ 10, 100 μM
  level of HIF-1α protein: increased the level of HIF-1α protein
HIF-1α [3]; oxygen condition not printed in the sentence (control also accumulated)
  HIF-1α accumulation: induced HIF-1α accumulation
HIF-1α [4]
  HIF-1α ubiquitination in cells: inhibited HIF-1α ubiquitination
